Data: patent US20240124503A1, “HETEROAROMATIC PHOSPHONIUM SALTS AND THEIR USE TREATING CANCER” (FLORATEK PHARMA S.A., priority 2021, published 2024)

Experiments:
TIE2 = target: T1, TIE2 (Homo sapiens, UniProt Q02763); assay: KINOMEscan competition binding, TIE2
T1 construct: purchased Eurofins (KINOMEscan); host or cells: E. coli BL21-derived host (T7 phage) or HEK-293
Protocol: (§1) Selected compounds were screened for kinase inhibition using the KINOMEscan™ assay (Eurofins) which is based on a competition binding assay that quantitatively measures the ability of a compound to compete with an immobilized, active-site directed ligand. The assay was performed by combining three components: DNA-tagged kinase; immobilized ligand; and the test compound. The ability of the test compound to compete with the immobilized ligand was measured via quantitative PCR of the DNA tag.
(§2) Kinase-tagged T7 phage strains were prepared in an E. coli host derived from the BL21 strain. E. coli were grown to log-phase and infected with T7 phage and incubated with shaking at 32° C. until lysis. The lysates were centrifuged and filtered to remove cell debris. The remaining kinases were produced in HEK-293 cells and subsequently tagged with DNA for qPCR detection. Streptavidin-coated magnetic beads were treated with biotinylated small molecule ligands for 30 minutes at room temperature to generate affinity resins for kinase assays. […] Kds were determined using an 11-point 3-fold compound dilution series with three DMSO control points. […] The kinase concentration in the eluates was measured by qPCR. […]
(§3) Binding constants (Kds) were calculated with a standard dose-response curve using the Hill equation: Response=Background+[Signal−Background/1+(Kd^Hill Slope/Dose^Hill Slope)] […]

RIOK2 = target: T2, RIOK2 (Homo sapiens, UniProt Q9BVS4); assay: KINOMEscan competition binding, RIOK2
T2 construct: purchased Eurofins (KINOMEscan); host or cells: E. coli BL21-derived host (T7 phage) or HEK-293
T2 sequence (Q9BVS4 whole entry): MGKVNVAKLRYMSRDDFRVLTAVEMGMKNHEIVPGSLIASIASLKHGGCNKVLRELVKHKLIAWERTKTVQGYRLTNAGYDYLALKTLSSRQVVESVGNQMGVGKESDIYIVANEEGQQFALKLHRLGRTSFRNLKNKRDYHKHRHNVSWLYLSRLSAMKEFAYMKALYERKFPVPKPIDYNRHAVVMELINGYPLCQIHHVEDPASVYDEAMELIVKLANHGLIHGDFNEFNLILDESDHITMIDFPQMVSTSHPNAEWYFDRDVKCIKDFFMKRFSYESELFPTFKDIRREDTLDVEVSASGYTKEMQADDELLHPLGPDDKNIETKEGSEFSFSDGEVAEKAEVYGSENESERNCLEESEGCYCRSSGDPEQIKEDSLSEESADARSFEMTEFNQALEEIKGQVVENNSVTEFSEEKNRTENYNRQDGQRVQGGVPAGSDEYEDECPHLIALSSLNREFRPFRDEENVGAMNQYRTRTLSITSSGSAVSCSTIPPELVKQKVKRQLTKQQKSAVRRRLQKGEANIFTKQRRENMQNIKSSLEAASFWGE
Protocol: as §1, §2, §3

T1 sequence (Q02763 23-1124): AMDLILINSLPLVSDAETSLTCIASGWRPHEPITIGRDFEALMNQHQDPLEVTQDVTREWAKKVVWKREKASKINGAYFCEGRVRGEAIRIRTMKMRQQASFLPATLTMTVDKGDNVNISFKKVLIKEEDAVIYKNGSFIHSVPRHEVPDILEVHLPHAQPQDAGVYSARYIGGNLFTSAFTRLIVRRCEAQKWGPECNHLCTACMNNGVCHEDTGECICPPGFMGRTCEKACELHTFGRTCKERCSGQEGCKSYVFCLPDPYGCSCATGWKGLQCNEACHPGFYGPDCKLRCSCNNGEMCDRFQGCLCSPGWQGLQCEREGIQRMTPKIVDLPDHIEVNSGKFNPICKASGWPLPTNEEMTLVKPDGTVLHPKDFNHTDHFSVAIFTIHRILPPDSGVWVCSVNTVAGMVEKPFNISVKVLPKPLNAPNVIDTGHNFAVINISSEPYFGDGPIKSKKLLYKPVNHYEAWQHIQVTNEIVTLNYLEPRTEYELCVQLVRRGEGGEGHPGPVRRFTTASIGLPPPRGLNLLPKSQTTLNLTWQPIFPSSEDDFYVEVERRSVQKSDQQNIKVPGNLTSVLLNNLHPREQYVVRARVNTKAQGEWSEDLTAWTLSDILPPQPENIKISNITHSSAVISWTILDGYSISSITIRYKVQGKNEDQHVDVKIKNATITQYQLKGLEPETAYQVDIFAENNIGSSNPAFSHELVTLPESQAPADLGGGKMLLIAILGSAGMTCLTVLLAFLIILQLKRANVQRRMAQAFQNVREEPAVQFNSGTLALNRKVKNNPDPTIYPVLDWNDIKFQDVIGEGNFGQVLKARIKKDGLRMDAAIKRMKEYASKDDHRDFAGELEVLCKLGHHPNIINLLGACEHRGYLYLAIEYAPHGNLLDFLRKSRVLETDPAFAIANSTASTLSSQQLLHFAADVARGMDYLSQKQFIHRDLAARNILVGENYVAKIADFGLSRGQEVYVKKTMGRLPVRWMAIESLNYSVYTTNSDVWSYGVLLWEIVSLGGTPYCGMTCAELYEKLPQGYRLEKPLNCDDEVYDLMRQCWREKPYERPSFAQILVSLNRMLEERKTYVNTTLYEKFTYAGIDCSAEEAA

Kd (TIE2): 40 nM | Kd (RIOK2): 710 nM
Compound: COc1c(O)ccc2c(=O)c(O)c(-c3ccc(CCCC[P+](c4ccccc4)(c4ccccc4)c4ccccc4)cc3)oc12 [SND190, (4-(4-(3,7-Dihydroxy-8-methoxy-4-oxo-4H1-chromen-2-yl)phenyl)butyl)triphenylphosphonium bromide]
